Data as given in ChEMBL document CHEMBL1201862, “PubChem BioAssay data set” (2004).
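1) Cells in 96-well plates. 2) Compound, 48 h, 5 concentrations. 3) Linear interpolation between surrounding doses. 4) Unreached endpoint = highest concentration. GI50 = concentration required for 50% inhibition of growth.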 Active and inactive are the calls of the source. Rule as the data show it: active = GI50 up to about 1.1 µM and inactive = higher.

Experiments:
Assay in all cases: DTP human tumour cell line panel, 48 h
[1] = test system: NCI-H522
[2] = test system: MOLT-4
[3] = test system: LOX IMVI
[4] = test system: A498
[5] = test system: UO-31
[6] = test system: SR
[7] = test system: ACHN
[8] = test system: HT-29
[9] = test system: SK-MEL-28
[10] = test system: IGROV-1
[11] = test system: KM12
[12] = test system: RPMI-8226
[13] = test system: NCI-H23
[14] = test system: TK-10
[15] = test system: K562
[16] = test system: HOP-92
[17] = test system: RXF 393

CCOC(=O)C(NC(=O)c1ccc(/N=N/N(C)C)cc1)C(C)C (stereo not given) was tested. Which GI50 [1] did it give?
Its GI50 is > 100 µM (inactive).

What about the GI50 [2] of the same molecule?
The GI50 was > 100 µM (inactive).

And the GI50 [3]?
Its GI50 is > 100 µM (inactive).

What about the GI50 [4] of the same molecule?
The GI50 was > 100 µM (inactive).

And the GI50 [5]?
Its GI50 is > 100 µM (inactive).

What about the GI50 [6] of the same molecule?
The GI50 was > 100 µM (inactive).

What about the GI50 [7] of the same molecule?
The GI50 was > 100 µM (inactive).

And the GI50 [8]?
Its GI50 is > 100 µM (inactive).

What about the GI50 [9] of the same molecule?
The GI50 was > 100 µM (inactive).

And the GI50 [10]?
The GI50 was > 100 µM (inactive).

What about the GI50 [11] of the same molecule?
Its GI50 is > 100 µM (inactive).

And the GI50 [12]?
The GI50 was > 100 µM (inactive).

And the GI50 [13]?
The GI50 was > 100 µM (inactive).

What about the GI50 [14] of the same molecule?
Its GI50 is 54.2 µM (inactive).

What about the GI50 [15] of the same molecule?
Its GI50 is > 100 µM (inactive).

N=C(N)Nc1nc2cc(N)ccc2o1 was tested. Which GI50 [1] did it give?
Its GI50 is > 100 µM (inactive).

And the GI50 [2]?
Its GI50 is > 100 µM (inactive).

What about the GI50 [3] of the same molecule?
Its GI50 is > 100 µM (inactive).

And the GI50 [4]?
The GI50 was > 100 µM (inactive).

And the GI50 [5]?
Its GI50 is > 100 µM (inactive).

What about the GI50 [6] of the same molecule?
The GI50 was > 100 µM (inactive).

And the GI50 [7]?
The GI50 was > 100 µM (inactive).

And the GI50 [8]?
Its GI50 is > 100 µM (inactive).

And the GI50 [9]?
The GI50 was > 100 µM (inactive).

What about the GI50 [11] of the same molecule?
Its GI50 is > 100 µM (inactive).

And the GI50 [13]?
The GI50 was > 100 µM (inactive).

And the GI50 [16]?
The GI50 was > 100 µM (inactive).

And the GI50 [14]?
Its GI50 is > 100 µM (inactive).

What about the GI50 [15] of the same molecule?
Its GI50 is > 100 µM (inactive).

Which results are given for COc1c(CC(=O)c2ccccc2)c2ccccc2n1C(C)=O?
GI50 [2]: > 100 µM (inactive); GI50 [4]: > 100 µM (inactive); GI50 [5]: 56.8 µM (inactive); GI50 [17]: 34.5 µM (inactive); GI50 [6]: > 100 µM (inactive); GI50 [7]: > 100 µM (inactive); GI50 [8]: > 100 µM (inactive); GI50 [9]: > 100 µM (inactive); GI50 [10]: > 100 µM (inactive); GI50 [11]: > 100 µM (inactive); GI50 [12]: > 100 µM (inactive); GI50 [13]: 58.7 µM (inactive); GI50 [16]: > 100 µM (inactive); GI50 [15]: > 100 µM (inactive)

Which results are given for CC(=O)Nc1c(C)ccc2c1C(=O)c1ccccc1C2=O?
GI50 [1]: > 100 µM (inactive); GI50 [2]: > 100 µM (inactive); GI50 [3]: 79.3 µM (inactive); GI50 [4]: > 100 µM (inactive); GI50 [5]: 77.1 µM (inactive); GI50 [17]: > 100 µM (inactive); GI50 [6]: > 100 µM (inactive); GI50 [7]: > 100 µM (inactive); GI50 [8]: > 100 µM (inactive); GI50 [10]: > 100 µM (inactive); GI50 [11]: > 100 µM (inactive); GI50 [12]: 65.8 µM (inactive); GI50 [16]: > 100 µM (inactive); GI50 [14]: > 100 µM (inactive); GI50 [15]: > 100 µM (inactive)

C/N=C(/NC)N(C)c1nc(=[N+](C)C)ss1.[O-][Cl+3]([O-])([O-])[O-] was tested. Which GI50 [1] did it give?
The GI50 was 56.4 µM (inactive).

What about the GI50 [2] of the same molecule?
Its GI50 is 39.3 µM (inactive).

And the GI50 [3]?
The GI50 was 78.9 µM (inactive).

And the GI50 [4]?
The GI50 was 39.4 µM (inactive).

What about the GI50 [5] of the same molecule?
The GI50 was > 100 µM (inactive).

And the GI50 [17]?
The GI50 was > 100 µM (inactive).

What about the GI50 [6] of the same molecule?
Its GI50 is 55.5 µM (inactive).

What about the GI50 [7] of the same molecule?
The GI50 was > 100 µM (inactive).

And the GI50 [8]?
Its GI50 is > 100 µM (inactive).

What about the GI50 [9] of the same molecule?
Its GI50 is > 100 µM (inactive).

And the GI50 [10]?
Its GI50 is > 100 µM (inactive).

What about the GI50 [11] of the same molecule?
The GI50 was > 100 µM (inactive).

And the GI50 [13]?
The GI50 was 74.1 µM (inactive).

And the GI50 [16]?
The GI50 was 75 µM (inactive).

And the GI50 [14]?
Its GI50 is > 100 µM (inactive).

And the GI50 [15]?
The GI50 was 31.2 µM (inactive).

What does the source list for CC(C)(C)c1cc(C(O)(C(F)(F)F)C(F)(F)F)c2c(c1)C(C(F)(F)F)(C(F)(F)F)OC(c1ccccc1)(C(C)(C)C)N2 (stereo not given)?
GI50 [1]: 3.03 µM (inactive); GI50 [2]: 2.07 µM (inactive); GI50 [5]: 4.04 µM (inactive); GI50 [17]: 3.37 µM (inactive); GI50 [6]: 2.58 µM (inactive); GI50 [7]: 3.7 µM (inactive); GI50 [8]: 3.4 µM (inactive); GI50 [9]: 9.16 µM (inactive); GI50 [10]: 4.33 µM (inactive); GI50 [11]: 4.5 µM (inactive); GI50 [12]: 3.07 µM (inactive); GI50 [13]: 1.99 µM (inactive); GI50 [16]: < 0.01 µM (active); GI50 [14]: 3.02 µM (inactive); GI50 [15]: 3.07 µM (inactive)

How did the GI50 [1] turn out when O=C1N(Cl)C(=O)C(c2ccc(Cl)cc2)(c2ccc(Cl)cc2)N1Cl was run?
Its GI50 is 64.4 µM (inactive).

And the GI50 [2]?
The GI50 was 56.8 µM (inactive).

What about the GI50 [4] of the same molecule?
The GI50 was > 100 µM (inactive).

And the GI50 [5]?
The GI50 was 92.5 µM (inactive).

And the GI50 [17]?
Its GI50 is 22.6 µM (inactive).

And the GI50 [6]?
The GI50 was 39.4 µM (inactive).

What about the GI50 [7] of the same molecule?
Its GI50 is 55.8 µM (inactive).

And the GI50 [8]?
The GI50 was 78.9 µM (inactive).

What about the GI50 [9] of the same molecule?
The GI50 was > 100 µM (inactive).

What about the GI50 [10] of the same molecule?
Its GI50 is > 100 µM (inactive).

What about the GI50 [11] of the same molecule?
The GI50 was 48.8 µM (inactive).

And the GI50 [12]?
Its GI50 is 41.2 µM (inactive).

What about the GI50 [13] of the same molecule?
The GI50 was > 100 µM (inactive).

And the GI50 [16]?
The GI50 was > 100 µM (inactive).

And the GI50 [14]?
The GI50 was > 100 µM (inactive).

What about the GI50 [15] of the same molecule?
The GI50 was > 100 µM (inactive).
